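Cultured in 96-well plates, cells were exposed to test compound for 48 hours across five concentrations. GI50 = concentration required for 50% inhibition of growth.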 Activity calls are given as the source filed them. Rule as the data show it: active = GI50 up to about 1.1 µM and inactive = higher. Residues, ends and D or L forms follow the SMILES beside them. *: point of attachment. Boc = CC(C)(C)OC(=O)*; Bz = O=C(c1ccccc1)*
What was measured:
Test in all cases: NCI anticancer screen, dose series, 48 h
[1] = tested on: SF-295
[2] = tested on: OVCAR-8
[3] = tested on: HL-60
[4] = tested on: COLO 205
[5] = tested on: MDA-N
[6] = tested on: 786-0
[7] = tested on: M14
[8] = tested on: A498
[9] = tested on: OVCAR-5
[10] = tested on: MCF7
[11] = tested on: KM12
[12] = tested on: SNB-19
[13] = tested on: MOLT-4
[14] = tested on: BT-549
[15] = tested on: CAKI-1
[16] = tested on: SK-MEL-2
[17] = tested on: EKVX
[18] = tested on: SW-620
[19] = tested on: OVCAR-3

Measured: GI50

O=S(=O)(O)c1ccc(Nc2ccnc3ccccc23)cc1
inactive: [1] > 100 µM | [2] > 100 µM | [3] > 100 µM | [4] > 100 µM | [5] > 100 µM | [6] > 100 µM | [7] > 100 µM | [8] > 100 µM | [9] > 100 µM | [10] > 100 µM | [11] > 100 µM | [12] > 100 µM | [13] > 100 µM | [14] > 100 µM | [15] > 100 µM | [16] > 100 µM | [17] > 100 µM | [18] > 100 µM

CCC[N+](C)(C)CCCNC(=O)c1c(O)c2ccccc2[nH]c1=O
inactive: [1] > 100 µM | [2] > 100 µM | [3] > 100 µM | [4] > 100 µM | [5] > 100 µM | [6] > 100 µM | [8] > 100 µM | [9] > 100 µM | [10] > 100 µM | [11] > 100 µM | [13] > 100 µM | [14] 89.1 µM | [19] > 100 µM | [15] > 100 µM | [16] > 100 µM | [17] > 100 µM | [18] > 100 µM

O=C1N=C(c2ccccc2)OC1C(=O)c1ccccc1 (stereo not given)
inactive: [1] > 100 µM | [2] > 100 µM | [3] > 100 µM | [4] > 100 µM | [5] > 100 µM | [6] > 100 µM | [7] > 100 µM | [8] > 100 µM | [9] > 100 µM | [10] > 100 µM | [11] > 100 µM | [12] > 100 µM | [13] > 100 µM | [14] > 100 µM | [19] > 100 µM | [15] > 100 µM | [16] > 100 µM | [17] > 100 µM | [18] > 100 µM

CC(=O)OCc1nc(C#N)c(N)o1
inactive: [1] > 100 µM | [3] > 100 µM | [4] > 100 µM | [5] > 100 µM | [6] > 100 µM | [8] > 100 µM | [9] > 100 µM | [10] > 100 µM | [11] > 100 µM | [12] > 100 µM | [13] > 100 µM | [14] > 100 µM | [19] > 100 µM | [15] > 100 µM | [16] > 100 µM | [17] > 100 µM | [18] > 100 µM

Cc1ccc(C2=Nn3c(nc4sc(C)c(C)c4c3=O)SC2)cc1
inactive: [1] > 100 µM | [2] > 100 µM | [3] > 100 µM | [4] > 100 µM | [5] > 100 µM | [6] > 100 µM | [8] > 100 µM | [9] > 100 µM | [10] > 100 µM | [11] > 100 µM | [13] > 100 µM | [14] > 100 µM | [19] > 100 µM | [15] > 100 µM | [17] > 100 µM | [18] > 100 µM

Cn1/c(=N\N=C2\C=C3CCCCC3(C)CC2)sc2ccccc21 (stereo not given)
inactive: [1] > 100 µM | [2] > 100 µM | [3] > 100 µM | [4] > 100 µM | [5] > 100 µM | [6] > 100 µM | [7] > 100 µM | [8] > 100 µM | [9] > 100 µM | [10] > 100 µM | [11] > 100 µM | [12] > 100 µM | [14] > 100 µM | [19] > 100 µM | [15] > 100 µM | [16] > 100 µM | [17] > 100 µM | [18] > 100 µM

CC(=O)O[C@H]1CC[C@@]2(C)C(=CC[C@@H]3[C@@H]2CC[C@]2(C)c4c(C)n[nH]c4C[C@@H]32)C1
inactive: [1] 20.4 µM | [2] 31 µM | [3] 10.1 µM | [4] 14.7 µM | [5] 20.1 µM | [6] 17.4 µM | [7] 16 µM | [8] 20.3 µM | [9] 14.9 µM | [10] 11.5 µM | [11] 15.3 µM | [12] 19.5 µM | [13] 11.7 µM | [14] 15.2 µM | [19] 12.2 µM | [15] 16.8 µM | [17] 17.9 µM | [18] 16.9 µM

O=C(c1ccccc1)c1c(-c2ccccc2)n(-c2ccccc2)[nH]c(=O)c1=O
inactive: [1] 28.2 µM | [2] 46 µM | [3] 32.2 µM | [4] 75.2 µM | [5] 50.1 µM | [6] 31.2 µM | [7] > 100 µM | [8] > 100 µM | [9] > 100 µM | [10] 46.7 µM | [11] 54.3 µM | [12] 88.3 µM | [13] 28.2 µM | [14] 13.7 µM | [19] 37.2 µM | [15] 37.6 µM | [16] 24 µM | [17] 55.5 µM

CC(C)(C)OC(=O)CN1CCNCCN(CC(=O)OC(C)(C)C)CCNCC1
inactive: [1] > 100 µM | [2] > 100 µM | [3] 36.2 µM | [4] > 100 µM | [5] 65.6 µM | [6] > 100 µM | [8] > 100 µM | [9] > 100 µM | [10] > 100 µM | [11] 98.9 µM | [12] > 100 µM | [13] 64.7 µM | [14] > 100 µM | [19] > 100 µM | [15] > 100 µM | [16] > 100 µM | [17] > 100 µM | [18] > 100 µM

CC(C)(C)OC(=O)NC(Cc1ccc(O)cn1)C(N)=O (stereo not given)
inactive: [1] > 100 µM | [2] > 100 µM | [3] > 100 µM | [4] > 100 µM | [5] > 100 µM | [6] > 100 µM | [8] > 100 µM | [9] > 100 µM | [10] > 100 µM | [11] > 100 µM | [12] > 100 µM | [13] > 100 µM | [14] > 100 µM | [19] > 100 µM | [15] > 100 µM | [17] > 100 µM | [18] > 100 µM

N#Cc1cnc(-n2[nH]c3c(c2=O)CCCC3)[nH]c1=O
inactive: [1] 40.3 µM | [3] 34.8 µM | [4] 38.5 µM | [5] > 100 µM | [6] 49.2 µM | [7] 38.1 µM | [8] 59 µM | [9] 74.6 µM | [10] 39.8 µM | [11] 21.8 µM | [12] > 100 µM | [13] 44.5 µM | [14] 73.5 µM | [15] 39.2 µM | [16] 71.3 µM | [17] 37.6 µM | [18] 50 µM

O=C(Cc1ccccc1)c1ccc2[nH]c(=O)oc2c1
inactive: [1] 38.2 µM | [2] 23.2 µM | [3] 50.4 µM | [4] 66.2 µM | [5] 39.3 µM | [6] 87.3 µM | [7] 47 µM | [8] > 100 µM | [9] > 100 µM | [10] 43.5 µM | [11] 19 µM | [13] 31.6 µM | [14] 48.6 µM | [19] 35.2 µM | [15] 59.6 µM | [16] 32.6 µM | [17] 12.5 µM | [18] 52.1 µM

COC1CC(C)(N)C(O)C(C)O1 (stereo not given)
inactive: [1] > 100 µM | [2] > 100 µM | [3] > 100 µM | [4] > 100 µM | [5] > 100 µM | [6] > 100 µM | [7] > 100 µM | [8] > 100 µM | [10] > 100 µM | [11] > 100 µM | [12] > 100 µM | [13] > 100 µM | [14] > 100 µM | [19] > 100 µM | [15] > 100 µM | [16] > 100 µM | [17] > 100 µM | [18] > 100 µM

ClCC[N+]12CC[N+](CCCl)(CC1)C2
inactive: [1] > 100 µM | [2] > 100 µM | [3] > 100 µM | [4] > 100 µM | [5] > 100 µM | [6] > 100 µM | [7] > 100 µM | [8] > 100 µM | [9] > 100 µM | [10] > 100 µM | [11] > 100 µM | [12] > 100 µM | [13] > 100 µM | [14] > 100 µM | [19] > 100 µM | [15] > 75.5 µM | [16] > 100 µM | [17] > 100 µM | [18] > 100 µM

CC(NC(=O)C(Cc1ccc(OC(=O)c2ccccc2)cc1)NC(=O)OC(C)(C)C)C(=O)NC(Cc1ccccc1)C(=O)NCC(N)=O (stereo not given) (Boc-Y(Bz)AFG-NH2; configuration not given here)
inactive: [1] 18.7 µM | [2] 24.7 µM | [3] 25.6 µM | [4] 29.1 µM | [5] 25.8 µM | [6] 20.3 µM | [7] 17.9 µM | [8] 21.6 µM | [9] 24.4 µM | [10] 19.5 µM | [11] 35.8 µM | [12] 18.6 µM | [13] 29.3 µM | [14] 19 µM | [15] > 100 µM | [16] 17.9 µM | [18] 31.1 µM

— ChEMBL document CHEMBL1201862, “PubChem BioAssay data set” (2004)
